Like-named read-outs stand apart in the source and are kept apart here.
Legend:
[1] = Competitive equilibration experiments
Protocol: Relative stability of the anhydrate Forms A, C, H and J was investigated with competitive equilibration experiments.
Relative stability of the anhydrates Forms C, K and L was investigated with competitive equilibration experiments.
Relative stability of the anhydrates Form C and Form P was systematically investigated with competitive equilibration experiments.
About 5 mg of Form C and about 5 mg of Form P were added to 0.25 mL of saturated solutions of selected solvents. Obtained suspensions were stirred at 25° C., 50° C. and 70° C. for 4 days, respectively. Solid parts (wet cakes) were isolated by centrifugation filtration and investigated by XRPD.
About 10 mg of Form C and about 10 mg of Form P were added to 0.5 mL saturated solutions of selected solvents. Obtained suspensions were stirred at 80/C and 90 C, respectively. Solid parts (wet cakes) were be isolated by centrifugation filtration and investigated by XRPD.
About 3 mg of the Form P and 3 mg of the mixture of Form P and Form J were added to 0.2 mL of saturated solutions of selected solvents. Obtained suspensions were stirred at 25° C., 50° C. and 70° C. for 4 days, respectively. Solid parts (wet cakes) were isolated by centrifugation filtration and investigated by XRPD.
About 3 mg of Form P and 3 mg of the physical mixture of Form P and Form R were added to 0.2 mL of saturated solutions of 2-MeTHF. Obtained suspensions were stirred at 25° C., 50° C. and 70° C., respectively. Solid parts (wet cakes) were isolated by centrifugation filtration and investigated by XRPD.
About 1.5 mg of Form P, 1.5 mg of Form X and 1.5 mg Form Y were added to 0.15 mL saturated solution of 2-MeTHF. Obtained suspensions were stirred at 25° C., 50° C. and 70° C., respectively. Solid parts (wet cake) were isolated by centrifugation filtration and investigated by XRPD.

[2] = Form change on heating, dehydration or desolvation (TGA, DSC, variable temperature XRPD); type: physicochemical; settings: variable temperature XRPD
Protocol: Relative stability of the anhydrates Form R and Form P was investigated by variable temperature XRPD and competitive equilibration experiments.
Relative stability of the anhydrates Form B, Form X, Form Y and Form C was investigated by variable temperature XRPD. Form B converted to Form X, Form Y and Form C after heating to 150° C., 176° C. and 180° C., respectively.

[3] = as above; type: physicochemical
[4] = Competitive water activity experiments; settings: whole range of water activity (0≤a.w.≤1)
[5] = Equilibration with solvents; type: physicochemical
Protocol: Obtained suspensions were filtered through a 0.45 μm nylon membrane filter by centrifugation at 14,000 rpm. Solid parts (wet cakes) were investigated by XRPD. For samples with different XRPD patterns, additional analysis including DSC, TGA, ^1H-NMR were performed.
(§1) Obtained suspensions were filtered through a 0.45 μm nylon membrane filter by centrifugation at 14,000 rpm.
as §1

Cc1nc(-c2c[nH]c3c(C#N)cccc23)cnc1OCC(C)(C)O [Form A, 3-(5-(2-hydroxy-2-methylpropoxy)-6-methylpyrazin-2-yl)-1H-indole-7-carbonitrile]
Form conversion (relative stability) ([1]; at both 25° C. and 50° C.): converts to Form C

Cc1nc(-c2c[nH]c3c(C#N)cccc23)cnc1OCC(C)(C)O [Form B, 3-(5-(2-hydroxy-2-methylpropoxy)-6-methylpyrazin-2-yl)-1H-indole-7-carbonitrile]
Form after heating ([2]; heating to 150° C.): Form X
Form after heating ([2]; heating to 176° C.): Form Y
Form after heating ([2]; heating to 180° C.): Form C
Form after dehydration [3]: converts to Form K
Relative stability in water activity experiments [4]: converts to anhydrate Form C

Cc1nc(-c2c[nH]c3c(C#N)cccc23)cnc1OCC(C)(C)O [Form C and Form P, 3-(5-(2-hydroxy-2-methylpropoxy)-6-methylpyrazin-2-yl)-1H-indole-7-carbonitrile]
XRPD after competitive equilibration ([1]; 1,4-Dioxane, 25° C. for 4 days): Form D
XRPD after competitive equilibration ([1]; 1,4-Dioxane, 50° C. for 4 days): Form D
XRPD after competitive equilibration ([1]; 1,4-Dioxane, 70° C. for 4 days): Form D
XRPD after competitive equilibration ([1]; 2-MeTHF, 25° C. for 4 days): Form P
XRPD after competitive equilibration ([1]; 2-MeTHF, 50° C. for 4 days): Form P
XRPD after competitive equilibration ([1]; 2-MeTHF, 70° C. for 4 days): Form P
XRPD after competitive equilibration ([1]; Acetone, 25° C. for 4 days): Form P
XRPD after competitive equilibration ([1]; Acetone, 50° C. for 4 days): Form P
XRPD after competitive equilibration ([1]; Acetone, 70° C. for 4 days): Form P
XRPD after competitive equilibration ([1]; Acetone/water (v:v = 36:64) a.w = 0.9, 25° C. for 4 days): Form P
XRPD after competitive equilibration ([1]; Acetone/water (v:v = 36:64) a.w = 0.9, 50° C. for 4 days): Form P
XRPD after competitive equilibration ([1]; Acetone/water (v:v = 36:64) a.w = 0.9, 70° C. for 4 days): Form P
XRPD after competitive equilibration ([1]; Acetone/water (v:v = 76.5:23.5) a.w = 0.7, 25° C. for 4 days): Form P
XRPD after competitive equilibration ([1]; Acetone/water (v:v = 76.5:23.5) a.w = 0.7, 50° C. for 4 days): Form P
XRPD after competitive equilibration ([1]; Acetone/water (v:v = 76.5:23.5) a.w = 0.7, 70° C. for 4 days): Form P
XRPD after competitive equilibration ([1]; Acetone/water (v:v = 95.2:4.8) a.w = 0.4, 25° C. for 4 days): Form P
XRPD after competitive equilibration ([1]; Acetone/water (v:v = 95.2:4.8) a.w = 0.4, 50° C. for 4 days): Form P
XRPD after competitive equilibration ([1]; Acetone/water (v:v = 95.2:4.8) a.w = 0.4, 70° C. for 4 days): Form P
XRPD after competitive equilibration ([1]; Acetonitrile, 25° C. for 4 days): Form P
XRPD after competitive equilibration ([1]; Acetonitrile, 50° C. for 4 days): Form P
XRPD after competitive equilibration ([1]; Acetonitrile, 70° C. for 4 days): Form P
XRPD after competitive equilibration ([1]; DCM, 25° C. for 4 days): Form P
XRPD after competitive equilibration ([1]; DMSO/water (v:v = 1:5 a.w. = 0.94), 80° C. for about 6 d): Form P
XRPD after competitive equilibration ([1]; DMSO/water (v:v = 1:5 a.w. = 0.94), 90° C. for about 8 d): Form C (majority) +
XRPD after competitive equilibration ([1]; DMSO/water (v:v = 1:5 a.w. = 0.94), 90° C. for about 18 d): Form C
XRPD after competitive equilibration ([1]; Ethanol, 25° C. for 4 days): Form P
XRPD after competitive equilibration ([1]; Ethanol, 50° C. for 4 days): Form P
XRPD after competitive equilibration ([1]; Ethanol, 70° C. for 4 days): Form P
XRPD after competitive equilibration ([1]; Ethyl acetate, 25° C. for 4 days): Form P
XRPD after competitive equilibration ([1]; Ethyl acetate, 50° C. for 4 days): Form P
XRPD after competitive equilibration ([1]; Ethyl acetate, 70° C. for 4 days): Form P
XRPD after competitive equilibration ([1]; Heptane, 25° C. for 4 days): Form P
XRPD after competitive equilibration ([1]; Heptane, 50° C. for 4 days): Form P
XRPD after competitive equilibration ([1]; Heptane, 70° C. for 4 days): Form P
XRPD after competitive equilibration ([1]; Heptane, 90° C. for about 8 d): Form C + Form P
XRPD after competitive equilibration ([1]; Heptane, 90° C. for about 18 d): Form C + Form P
XRPD after competitive equilibration ([1]; Isopropyl acetate, 25° C. for 4 days): Form P
XRPD after competitive equilibration ([1]; Isopropyl acetate, 50° C. for 4 days): Form P
XRPD after competitive equilibration ([1]; Isopropyl acetate, 70° C. for 4 days): Form P
XRPD after competitive equilibration ([1]; MEK, 25° C. for 4 days): Form P
XRPD after competitive equilibration ([1]; MEK, 50° C. for 4 days): Form P
XRPD after competitive equilibration ([1]; MEK, 70° C. for 4 days): Form P
XRPD after competitive equilibration ([1]; NMP, 25° C. for 4 days): Form Q, NMP
XRPD after competitive equilibration ([1]; THF, 25° C. for 4 days): Form P
XRPD after competitive equilibration ([1]; THF, 50° C. for 4 days): Form P
XRPD after competitive equilibration ([1]; Toluene, 90° C. for about 8 d): Form C
XRPD after competitive equilibration ([1]; Water, 25° C. for 4 days): Form P
XRPD after competitive equilibration ([1]; Water, 50° C. for 4 days): Form P
XRPD after competitive equilibration ([1]; Water, 70° C. for 4 days): Form P
XRPD after competitive equilibration ([1]; Water, 90° C. for about 8 d): Form C + Form P
XRPD after competitive equilibration ([1]; Water, 90° C. for about 18 d): Form P

Cc1nc(-c2c[nH]c3c(C#N)cccc23)cnc1OCC(C)(C)O [Form D, 3-(5-(2-hydroxy-2-methylpropoxy)-6-methylpyrazin-2-yl)-1H-indole-7-carbonitrile]
Form after desolvation [3]: converts to Form C

Cc1nc(-c2c[nH]c3c(C#N)cccc23)cnc1OCC(C)(C)O [Form E, 3-(5-(2-hydroxy-2-methylpropoxy)-6-methylpyrazin-2-yl)-1H-indole-7-carbonitrile]
Form after heating ([3]; heating to 100° C. by TGA and cooled to room temperature): converts to physical mixture of Form F and Form G

Cc1nc(-c2c[nH]c3c(C#N)cccc23)cnc1OCC(C)(C)O [Form G, 3-(5-(2-hydroxy-2-methylpropoxy)-6-methylpyrazin-2-yl)-1H-indole-7-carbonitrile]
Form after equilibration ([5]; DMSO/water system at 25° C. for 6 days): converts to anhydrate Form H

Cc1nc(-c2c[nH]c3c(C#N)cccc23)cnc1OCC(C)(C)O [Form I, 3-(5-(2-hydroxy-2-methylpropoxy)-6-methylpyrazin-2-yl)-1H-indole-7-carbonitrile]
Form after heating ([3]; heating to 140° C. by TGA and cooled to room temperature): converted to physical mixture of Form C, Form N and an unknown peak

Cc1nc(-c2c[nH]c3c(C#N)cccc23)cnc1OCC(C)(C)O [Form M, 3-(5-(2-hydroxy-2-methylpropoxy)-6-methylpyrazin-2-yl)-1H-indole-7-carbonitrile]
Form after equilibration ([5]; MeOH at 25° C. for another 1 day): converts to Form B

Cc1nc(-c2c[nH]c3c(C#N)cccc23)cnc1OCC(C)(C)O [Form N, 3-(5-(2-hydroxy-2-methylpropoxy)-6-methylpyrazin-2-yl)-1H-indole-7-carbonitrile]
Relative stability in water activity experiments [4]: converts to Form C

Cc1nc(-c2c[nH]c3c(C#N)cccc23)cnc1OCC(C)(C)O [Form P + Form X + Form Y, 3-(5-(2-hydroxy-2-methylpropoxy)-6-methylpyrazin-2-yl)-1H-indole-7-carbonitrile]
XRPD after competitive equilibration ([1]; 2-MeTHF, 25° C. for about 3 days): Form P
XRPD after competitive equilibration ([1]; 2-MeTHF, 50° C. for about 3 days): Form P
XRPD after competitive equilibration ([1]; 2-MeTHF, 70° C. for about 3 days): Form P

Cc1nc(-c2c[nH]c3c(C#N)cccc23)cnc1OCC(C)(C)O [Form Q, 3-(5-(2-hydroxy-2-methylpropoxy)-6-methylpyrazin-2-yl)-1H-indole-7-carbonitrile]
Form after desolvation ([3]; desolvation by heating to 150° C.): converted to a physical mixture of Form C (majority) and Form Q

Cc1nc(-c2c[nH]c3c(C#N)cccc23)cnc1OCC(C)(C)O [Form R, 3-(5-(2-hydroxy-2-methylpropoxy)-6-methylpyrazin-2-yl)-1H-indole-7-carbonitrile]
Form conversion (relative stability) ([1]; at both 25° C. and 70° C.): converts to Form P

Cc1nc(-c2c[nH]c3c(C#N)cccc23)cnc1OCC(C)(C)O [Form S, 3-(5-(2-hydroxy-2-methylpropoxy)-6-methylpyrazin-2-yl)-1H-indole-7-carbonitrile]
Relative stability in water activity experiments [4]: converted to anhydrate Form P

Cc1nc(-c2c[nH]c3c(C#N)cccc23)cnc1OCC(C)(C)O [Form U, 3-(5-(2-hydroxy-2-methylpropoxy)-6-methylpyrazin-2-yl)-1H-indole-7-carbonitrile]
Form after desolvation [3]: converted to Form C

Cc1nc(-c2c[nH]c3c(C#N)cccc23)cnc1OCC(C)(C)O [Form X, 3-(5-(2-hydroxy-2-methylpropoxy)-6-methylpyrazin-2-yl)-1H-indole-7-carbonitrile]
Form conversion (relative stability) ([1]; at 25° C., 50° C. and 70° C.): converts to Form P
